In ChEMBL document CHEMBL3886513, “Benzothiazole-based pyridinium compounds” (2016):

Assays:
[1] = molecular target: Acetylcholinesterase (Electrophorus electricus, UniProt O42275); assay: (§1) AChE/BuChE Inhibition Assay: The cholinesterase assays were performed using colorimetric method reported by Ellman. The appearance of product was monitored at 412 nm for 5 min using a spectrophotometer. The reaction rates were compared and the percent inhibition due to the presence of test compounds was calculated. Inhibition curve was obtained for each compound. The linear regression parameters were determined and the IC50 values extrapolated.
[2] = molecular target: Acetylcholinesterase (Homo sapiens, UniProt P22303); assay: as §1
[3] = molecular target: Cholinesterase (Homo sapiens, UniProt P06276); assay: as §1
Chain of Cholinesterase (P06276 whole entry): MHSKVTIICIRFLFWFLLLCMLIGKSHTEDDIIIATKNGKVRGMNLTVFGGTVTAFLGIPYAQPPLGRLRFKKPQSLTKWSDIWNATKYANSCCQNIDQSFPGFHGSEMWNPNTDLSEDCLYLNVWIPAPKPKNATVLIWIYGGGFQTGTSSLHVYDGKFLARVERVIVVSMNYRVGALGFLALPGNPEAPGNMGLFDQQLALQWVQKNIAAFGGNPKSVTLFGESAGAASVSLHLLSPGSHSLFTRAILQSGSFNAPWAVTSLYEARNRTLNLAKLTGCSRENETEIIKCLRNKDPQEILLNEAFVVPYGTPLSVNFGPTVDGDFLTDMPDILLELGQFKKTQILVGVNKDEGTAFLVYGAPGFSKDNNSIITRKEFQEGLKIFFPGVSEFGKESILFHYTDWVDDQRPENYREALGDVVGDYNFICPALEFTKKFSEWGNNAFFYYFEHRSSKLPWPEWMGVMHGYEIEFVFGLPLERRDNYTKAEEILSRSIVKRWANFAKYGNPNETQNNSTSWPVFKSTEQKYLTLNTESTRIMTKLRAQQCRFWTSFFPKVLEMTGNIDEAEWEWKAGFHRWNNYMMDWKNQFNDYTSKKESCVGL

Chain of Acetylcholinesterase (Electrophorus electricus, UniProt O42275) (O42275 whole entry): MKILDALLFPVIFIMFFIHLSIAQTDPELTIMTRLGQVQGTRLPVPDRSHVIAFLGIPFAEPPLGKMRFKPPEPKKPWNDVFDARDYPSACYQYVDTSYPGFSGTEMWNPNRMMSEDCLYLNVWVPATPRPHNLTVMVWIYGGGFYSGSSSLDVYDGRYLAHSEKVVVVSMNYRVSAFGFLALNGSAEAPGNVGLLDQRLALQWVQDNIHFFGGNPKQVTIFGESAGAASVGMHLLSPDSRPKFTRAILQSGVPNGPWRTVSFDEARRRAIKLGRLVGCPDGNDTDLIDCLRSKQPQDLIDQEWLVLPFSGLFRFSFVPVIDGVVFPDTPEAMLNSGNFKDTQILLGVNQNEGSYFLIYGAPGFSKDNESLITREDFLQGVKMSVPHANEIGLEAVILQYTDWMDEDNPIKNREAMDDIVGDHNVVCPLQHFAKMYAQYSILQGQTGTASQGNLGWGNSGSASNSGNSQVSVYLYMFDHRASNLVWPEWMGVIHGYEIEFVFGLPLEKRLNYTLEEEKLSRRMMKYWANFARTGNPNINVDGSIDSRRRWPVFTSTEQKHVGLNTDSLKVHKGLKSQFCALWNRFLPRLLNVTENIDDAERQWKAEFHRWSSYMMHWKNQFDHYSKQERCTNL
Chain of Acetylcholinesterase (Homo sapiens, UniProt P22303) (P22303 whole entry): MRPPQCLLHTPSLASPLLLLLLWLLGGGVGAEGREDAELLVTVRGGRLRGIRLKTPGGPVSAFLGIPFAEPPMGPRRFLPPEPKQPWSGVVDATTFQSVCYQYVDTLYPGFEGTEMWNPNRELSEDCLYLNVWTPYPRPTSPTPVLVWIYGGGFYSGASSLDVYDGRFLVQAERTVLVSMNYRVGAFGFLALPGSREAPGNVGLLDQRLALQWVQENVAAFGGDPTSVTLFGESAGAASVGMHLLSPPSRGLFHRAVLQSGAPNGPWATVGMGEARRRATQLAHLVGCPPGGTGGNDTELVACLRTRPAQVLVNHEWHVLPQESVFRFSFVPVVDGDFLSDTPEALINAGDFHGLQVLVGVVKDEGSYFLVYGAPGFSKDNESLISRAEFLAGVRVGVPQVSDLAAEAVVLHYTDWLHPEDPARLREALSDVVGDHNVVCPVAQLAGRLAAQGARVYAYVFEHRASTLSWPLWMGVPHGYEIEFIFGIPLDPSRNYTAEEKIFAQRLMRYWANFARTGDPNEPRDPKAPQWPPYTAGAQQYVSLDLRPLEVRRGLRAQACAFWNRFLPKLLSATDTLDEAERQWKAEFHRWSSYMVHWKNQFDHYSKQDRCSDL

In the case of `Fc1ccc(C[n+]2ccc(CCNc3nc4ccc(F)cc4s3)cc2)cc1`, the IC50 [1] is reported as 500 nM, the IC50 [2] is reported as 269 nM and the IC50 [3] is reported as 8160 nM.
Compound `O=[N+]([O-])c1ccc2nc(NCCc3cc[n+](Cc4ccc(F)cc4)cc3)sc2c1` has an IC50 [1] of 25 nM, an IC50 [2] of 96 nM and an IC50 [3] of 11900 nM.
`COc1ccc2nc(NCCc3cc[n+](Cc4ccccc4)cc3)sc2c1` gave an IC50 [1] of 441 nM, an IC50 [2] of 186 nM and an IC50 [3] of 3010 nM.
`COc1ccc2nc(NCCc3cc[n+](Cc4c(F)cccc4F)cc3)sc2c1` was tested, and the IC50 [1] was 408 nM, the IC50 [2] was 203 nM and the IC50 [3] was 826 nM.
For `COc1ccc2nc(NCCc3cc[n+](Cc4ccc(F)cc4)cc3)sc2c1`, the IC50 [1] was 542 nM, the IC50 [2] was 223 nM and the IC50 [3] was 5630 nM.
